Experiments:
Carrageenin edema = Carrageenin edema in rats; assay type: in vivo, rat; conditions: for Percent inhibition: carrageenin edema; for Mean volume of edematous swelling ±S.E.: in ml (unit assumed)
Experimental: The volume of the right hind paw of each rat was measured and the test compound suspended in 4% gum arabic solution was orally administered in an amount of 1 ml/100 g body weight. Immediately thereafter, a further amount of water was given to make the total dosing volume 5 ml. After 1 hour, 0.05 ml of a 1% suspension of carageenin in physiological saline was subcutaneously injected into the foot pad. Three hours after the carrageenin injection, the volume of the paw was measured again and the volume of the edema was calculated as a difference between this measured volume of the paw and the volume before the injection.
In the case of intravenous administration, a solution of the test compound in an aqueous solution of NaHCO3 was intravenously administered in an amount of 2.0 ml/100 g body weight and 5 ml of water per animal was orally administered. Then, carrageenin was injected subcutaneously to produce edema.

Acute toxicity in mice = assay type: in vivo, mouse (Jcl:ICR strain); conditions: 500 mg/kg oral
Experimental: Five 5-week-old male mice of Jcl:ICR strain, weighing 26.0 to 30.5 g, were used. Compound (I)-A-1 was suspended in a 5% solution of gum arabic and administered orally by gastric gavage at the level of 0.2 ml per 10 grams body weight.
Five 5-week-old male mice of Jcl:ICR strain, weighing 26.0 to 30.5 g, were used. Compound (I)-B-1 or (I)-B-2 was suspended in a 5% solution of gum arabic and administered orally by gastric gavage at the level of 0.2 ml per 10 grams body weight.

[1] = tested on: bronchoconstriction due to leukotriene D4 (LTD4); assay: Inhibition of bronchoconstriction due to intravenous LTD4 in guinea pigs (Konzett-Rossler); assay type: in vivo, guinea pig (Hartley strain); conditions: for Percent increase of overflow: 2 minutes before LTD4 10 μg/kg i.v., Mean±S.E.; for Percent inhibition: 2 minutes before LTD4 (Table 2)
Experimental: Guinea pigs of Hartley strain, both male and female, with body weights about 400 g were assigned to groups of 6 individuals, and the bronchoconstriction due to LTD4 were measured according to the method of Konzett-Rossler, [Konzett, H. and Rossler, R.: Naunyn-Schmiedebergs Archiv Fur Experimentelle Pathologie und Pharmakologie 195, 71-74 (1940)]. Each guinea pig was fixed in supine position under urethane anesthesia (1.5 g/kg, intraperitoneal) and the trachea was incised and connected to an artificial respiration apparatus, Rodent Respirator Model 680 [Harvard Apparatus Company, U.S.A.] via a cannula. The branch tube of this tracheal cannula was connected to Bronchospasm Transducer Model 7020 [Ugobasil Biological Research Apparatus, Italy]. Under the conditions of 5 to 7 ml of air per stroke, 70 strokes per minute and a lung loading pressure of 10 cmH2 O, the volume of overflowing air was recorded on Rectigraph-8S (Sanei Sokki Ltd., Japan) via a transducer. After administration of gallamine triethiodide (1 mg/kg, i.v.), 10 μ g/kg of histamine.2HCl was intravenously administered to investigate the response of the animal. Then, a solution of LTD4 in physiological saline (10 μg/kg) was intravenously administered and the bronchoconstriction elicited thereby was recorded for 15 minutes. Two minutes before LTD4 loading, compound (I)-A-1 was intravenously administered in a volume of 0.1 ml per 100 g body weight. Compound (I)-A-1 and LTD4 were administered through a cannula inserted into the jugular vein.
The compound (I)-A-1 was used as dissolved in physiological saline containing sodium hydrogen carbonate, and LTD4 was taken from a stock stored in methanol (1 mg/1 ml methanol) at -70° C.
The bronchoconstriction induced by intravenous administration of 10 μg/kg of LTD4 as given 2 minutes after the administration of physiological saline was maximal at the time of 30 seconds after the administration of LTD4 and, since then, was rapidly attenuated to about 50% at the time of 2 minutes but lasted till 15 minutes. Assuming that the response at complete obstruction is 100%, the values at 30 seconds and 15 minutes were 47.4±6.9% (n=6, Mean±S.E.) and 19.4±2.8% (Mean±S.E.), respectively (S.E.: standard error).
Then the present inventors studied the antagonistic action of the compound (I)-B against SRS-A using a synthetic LTD4 in the manner described on the compound (I)-A.
In each case, the bronchoconstriction following intravenous administration of 10 μg/kg of LTD4 at 2 or 30 minutes after the administration of physiological saline reached a maximum 30 seconds after the administration of LTD4, and then decreased to about 50% at 2 minutes after the administration of LTD4. The response continued for 15 minutes after the administration of LTD4. Repeated experiments using 6 animals per group gave mean degrees of maximum bronchoconstriction (30-second values) of 52.2-67.1% and 54.7-70.1%, respectively, as compared with the state of complete obstruction (100%). In experiment 1, the test compounds (I)-B-1, (I)-B-2 and Control compound-1 were each intravenously administered at two minutes before the administration of LTD4 and inhibitory effect on the bronchoconstriction was examined. The minimum effective doses (causing statistically significant differences as compared with the control group; significance level <5%) were 0.313, 0.313 and 5 mg/kg, respectively. The corresponding inhibition percentages were 41, 52 and 56%, respectively. In experiment 2, the test compounds were intravenously administered 30 minutes before the administration of LTD4 and the effect on the above response was examined. The minimum effective doses were 5, 5, and 20 mg/kg, respectively.
The test compounds were intravenously administered 2 minutes before the
intravenous administration of 10 μg/kg of LTD4.
The test compounds were intravenously administered 30 minutes before the
Each value was calculated from the volume (in percentage) of air […]

[2] = tested on: leukotriene D4 (LTD4)-induced contraction of the guinea pig ileum; assay: Anti-SRS-A activity: inhibition of LTD4-induced contraction of guinea pig ileum; conditions: 50% inhibition of LTD4-induced contraction (60-70% of maximum contraction), drug added 1 minute before LTD4
Source text: The present inventors studied the antagonistic action of compound (I)-A against SRS-A using a synthetic LTD4 in the following manner.
The inhibitory effect of the drug on the contractile response (60-70% of maximum contraction) of the ileum of guinea pig (body weight 300-350 g, female and male) to leukotriene D4 (LTD4) was investigated. In Tyrode solution containing atropine (10^-7 M) and mepyramine (10^-6 M), 3×10^-10 or 10^-9 M of LTD4 was repeatedly permitted to act on the guinea pig ileum and after the amplitude of contraction had become constant, a solution of the test drug was added to a final concentration of 10^-9 to 10^-4 M. After 1 minute, the same concentration of LTD4 was further added and the anti-SRS-A activity of the drug was calculated from the change in contraction amplitude by means of the following equation. [formula]
To obtain the IC50 value, the mole concentration of the drug showing a 50% inhibition of the contractile response was determined from plots on a graph.
The drug was used as dissolved in dimethyl sulfoxide. The solvent was used in an amount less than 1% which would not exert any influence on the ileum.

CCCc1c(OCC(O)COc2ccc(-c3nn[nH]n3)cc2Cl)ccc(C(C)=O)c1O (centres unmarked) [Compound (I)-A-1, 4-[3-[4-(tetrazol-5-yl)-2-chlorophenoxy]-2-hydroxypropoxy]-2-hydroxy-3-propylacetophenone]
Percent inhibition (Carrageenin edema; 1 mg/kg i.v.): 19.2% | Mean volume of edematous swelling ±S.E. (Carrageenin edema; 1 mg/kg i.v.): 0.442 ± 0.044 | Percent inhibition (Carrageenin edema; 10 mg/kg i.v.): 25.0% | Mean volume of edematous swelling ±S.E. (Carrageenin edema; 10 mg/kg i.v., *p<0.05): 0.410 ± 0.046 | Mean volume of edematous swelling ±S.E. (Carrageenin edema; 50 mg/kg p.o., 3 hours after carrageenin, *p<0.05): 0.487 ± 0.023 | Percent inhibition (Carrageenin edema; 50 mg/kg p.o.): 15.0% | antiinflammatory activity (in words) (Carrageenin edema; rat, in vivo): has an antiinflammatory activity | Autopsy findings (Acute toxicity in mice; after 1 week): did not reveal any abnormalities | symptoms attributable to compound after oral administration (Acute toxicity in mice; male mice): no symptoms | Percent increase of overflow ([1]; 0.08 mg/kg i.v., 8 animals): 29.1 ± 7.5% | Percent inhibition ([1]; 0.08 mg/kg i.v.): 39% | Percent increase of overflow ([1]; 0.313 mg/kg i.v., 6 animals): 28.1 ± 7.1% | Percent inhibition ([1]; 0.313 mg/kg i.v.): 41% | Percent increase of overflow ([1]; 1.25 mg/kg i.v., 6 animals, *p<0.05 vs physiological saline control): 23.4 ± 8.0% | Percent inhibition ([1]; 1.25 mg/kg i.v.): 51% | inhibition of LTD4 bronchoconstriction (in words) ([1]; 5 mg/kg i.v., 2 minutes before LTD4): substantially complete inhibition | Percent increase of overflow ([1]; 5 mg/kg i.v., 6 animals, ***p<0.001 vs physiological saline control): 3.3 ± 2.1% | Percent inhibition ([1]; 5 mg/kg i.v.): 93% | inhibitory effect against LTD4 bronchoconstriction (in words) ([1]; intravenously administered 2 minutes before LTD4 dosing): remarkable inhibitory effect | IC50 [2]: 4.1 nM
